Test results taken from ChEMBL document CHEMBL4270599, “Synthesis of a 3'-C-ethynyl-β-d-ribofuranose purine nucleoside library: Discovery of C7-deazapurine analogs as potent antiproliferative nucleosides” (Eur J Med Chem, 2018).

Assays:
Assay type in all cases: functional
SK-MEL-28 [1] = experiment: Cytotoxicity against human SK-MEL-28 cells after 48 hrs by SRB assay; settings: SK-MEL-28, 48 h
RXF 393 = experiment: Cytotoxicity against human RXF393 cells after 48 hrs by SRB assay; settings: RXF 393, 48 h
SR = experiment: Growth inhibition of human SR cells assessed as cell growth at 10^-8 M incubated for 48 hrs by sulforhodamine B assay relative to control; settings: read-out: Activity
SK-MEL-5 [2] = experiment: Growth inhibition of human SK-MEL-5 cells assessed as cell growth at 10^-7 M incubated for 48 hrs by sulforhodamine B assay relative to control; settings: SK-MEL-5, 48 h, read-out: Activity
MDA-MB-231 = experiment: Growth inhibition of human MDA-MB-231 cells assessed as cell growth at 10^-7 M incubated for 48 hrs by sulforhodamine B assay relative to control; settings: MDA-MB-231, 48 h, read-out: Activity
CCRF-CEM = experiment: Growth inhibition of human CCRF-CEM cells assessed as cell growth at 10^-6 M incubated for 48 hrs by sulforhodamine B assay relative to control; settings: read-out: Activity
COLO 205 [3] = experiment: Growth inhibition of human COLO205 cells assessed as cell growth at 10^-6 M incubated for 48 hrs by sulforhodamine B assay relative to control; settings: COLO 205, 48 h, read-out: Activity
HOP-92 [4] = experiment: Growth inhibition of human HOP92 cells assessed as cell growth at 10^-5 M incubated for 48 hrs by sulforhodamine B assay relative to control; settings: HOP-92, 48 h, read-out: Activity
SNB-75 [5] = experiment: Growth inhibition of human SNB75 cells assessed as cell growth at 10^-5 M incubated for 48 hrs by sulforhodamine B assay relative to control; settings: SNB-75, 48 h, read-out: Activity
LOX IMVI = experiment: Growth inhibition of human LOXIMVI cells assessed as cell growth at 10^-5 M incubated for 48 hrs by sulforhodamine B assay relative to control; settings: read-out: Activity
SK-MEL-5 [6] = experiment: Growth inhibition of human SK-MEL-5 cells assessed as cell growth at 10^-5 M incubated for 48 hrs by sulforhodamine B assay relative to control; settings: SK-MEL-5, 48 h, read-out: Activity
IGROV-1 = experiment: Growth inhibition of human IGROV1 cells assessed as cell growth at 10^-5 M incubated for 48 hrs by sulforhodamine B assay relative to control; settings: IGROV-1, 48 h, read-out: Activity
T47D [7] = experiment: Growth inhibition of human T47D cells assessed as cell growth at 10^-5 M incubated for 48 hrs by sulforhodamine B assay relative to control; settings: read-out: Activity
MDA-MB-468 = experiment: Growth inhibition of human MDA-MB-468 cells assessed as cell growth at 10^-5 M incubated for 48 hrs by sulforhodamine B assay relative to control; settings: MDA-MB-468, 48 h, read-out: Activity
RPMI-8226 = experiment: Growth inhibition of human RPMI8226 cells assessed as cell growth at 10^-4 M incubated for 48 hrs by sulforhodamine B assay relative to control; settings: RPMI-8226, 48 h, read-out: Activity
HOP-92 [8] = experiment: Growth inhibition of human HOP92 cells assessed as cell growth at 10^-4 M incubated for 48 hrs by sulforhodamine B assay relative to control; settings: HOP-92, 48 h, read-out: Activity
NCI-H23 = experiment: Growth inhibition of human NCI-H23 cells assessed as cell growth at 10^-4 M incubated for 48 hrs by sulforhodamine B assay relative to control; settings: NCI-H23, 48 h, read-out: Activity
COLO 205 [9] = experiment: Growth inhibition of human COLO205 cells assessed as cell growth at 10^-4 M incubated for 48 hrs by sulforhodamine B assay relative to control; settings: COLO 205, 48 h, read-out: Activity
HT-29 = experiment: Growth inhibition of human HT-29 cells assessed as cell growth at 10^-4 M incubated for 48 hrs by sulforhodamine B assay relative to control; settings: HT-29, 48 h, read-out: Activity
SF-295 [10] = experiment: Growth inhibition of human SF295 cells assessed as cell growth at 10^-4 M incubated for 48 hrs by sulforhodamine B assay relative to control; settings: SF-295, 48 h, read-out: Activity
SF-539 = experiment: Growth inhibition of human SF539 cells assessed as cell growth at 10^-4 M incubated for 48 hrs by sulforhodamine B assay relative to control; settings: SF-539, 48 h, read-out: Activity
SNB-75 [11] = experiment: Growth inhibition of human SNB75 cells assessed as cell growth at 10^-4 M incubated for 48 hrs by sulforhodamine B assay relative to control; settings: SNB-75, 48 h, read-out: Activity
M14 = experiment: Growth inhibition of human M14 cells assessed as cell growth at 10^-4 M incubated for 48 hrs by sulforhodamine B assay relative to control; settings: M14, 48 h, read-out: Activity
SK-MEL-28 [12] = experiment: Growth inhibition of human SK-MEL-28 cells assessed as cell growth at 10^-4 M incubated for 48 hrs by sulforhodamine B assay relative to control; settings: SK-MEL-28, 48 h, read-out: Activity
SK-MEL-5 [13] = experiment: Growth inhibition of human SK-MEL-5 cells assessed as cell growth at 10^-4 M incubated for 48 hrs by sulforhodamine B assay relative to control; settings: SK-MEL-5, 48 h, read-out: Activity
UACC-257 = experiment: Growth inhibition of human UACC257 cells assessed as cell growth at 10^-4 M incubated for 48 hrs by sulforhodamine B assay relative to control; settings: UACC-257, 48 h, read-out: Activity
OVCAR-8 = experiment: Growth inhibition of human OVCAR8 cells assessed as cell growth at 10^-4 M incubated for 48 hrs by sulforhodamine B assay relative to control; settings: OVCAR-8, 48 h, read-out: Activity
UO-31 = experiment: Growth inhibition of human UO31 cells assessed as cell growth at 10^-4 M incubated for 48 hrs by sulforhodamine B assay relative to control; settings: UO-31, 48 h, read-out: Activity
BT-549 = experiment: Growth inhibition of human BT549 cells assessed as cell growth at 10^-4 M incubated for 48 hrs by sulforhodamine B assay relative to control; settings: BT-549, 48 h, read-out: Activity
T47D [14] = experiment: Growth inhibition of human T47D cells assessed as cell growth at 10^-4 M incubated for 48 hrs by sulforhodamine B assay relative to control; settings: read-out: Activity
SF-295 [15] = experiment: Growth inhibition of human SF295 cells assessed as cell growth at 10^-5 M incubated for 48 hrs by sulforhodamine B assay relative to control; settings: SF-295, 48 h, read-out: Activity
SK-OV-3 = experiment: Growth inhibition of human SKOV3 cells assessed as cell growth at 10^-5 M incubated for 48 hrs by sulforhodamine B assay relative to control; settings: SK-OV-3, 48 h, read-out: Activity
SF-268 = experiment: Growth inhibition of human SF268 cells assessed as cell growth at 10^-4 M incubated for 48 hrs by sulforhodamine B assay relative to control; settings: SF-268, 48 h, read-out: Activity
[16] = read-out: LC50 (the source's name)
[17] = read-out: pLC50 (the source's name) (converted)

SMILES: C#C[C@@]1(O)[C@@H](CO)O[C@@H](n2ccc3c(N)ncnc32)[C@@H]1O
- CC50 (SK-MEL-28 [1]; [16]): > 100 µM
- TGI (SK-MEL-28 [1]; read-out: TGI): 20.2 µM
- GI50 (SK-MEL-28 [1]; read-out: pGI50 (converted)): 3.98 µM
- TGI (SK-MEL-28 [1]; read-out: pTGI (converted)): 20 µM
- TGI (RXF 393; read-out: TGI): 4.6 µM
- GI50 (RXF 393; read-out: pGI50 (converted)): 1910 nM
- CC50 (RXF 393; [17]): 12.9 µM
- TGI (RXF 393; read-out: pTGI (converted)): 4.57 µM
- growth at 0.01 µM (SR): 101%
- growth at 0.1 µM (SK-MEL-5 [2]): 101%
- growth at 0.1 µM (MDA-MB-231): 106%
- growth at 1 µM (CCRF-CEM): 70%
- growth at 1 µM (COLO 205 [3]): 40%
- growth at 10 µM (HOP-92 [4]): -29%
- growth at 10 µM (SNB-75 [5]): -64%
- growth at 10 µM (LOX IMVI): -87%
- growth at 10 µM (SK-MEL-5 [6]): -95%
- growth at 10 µM (IGROV-1): -19%
- growth at 10 µM (T47D [7]): -61%
- growth at 10 µM (MDA-MB-468): -58%
- growth at 100 µM (RPMI-8226): 2%
- growth at 100 µM (HOP-92 [8]): -87%
- growth at 100 µM (NCI-H23): -35%
- growth at 100 µM (COLO 205 [9]): -72%
- growth at 100 µM (HT-29): -17%
- growth at 100 µM (SF-295 [10]): -44%
- growth at 100 µM (SF-539): -82%
- growth at 100 µM (SNB-75 [11]): -42%
- growth at 100 µM (M14): -88%
- growth at 100 µM (SK-MEL-28 [12]): -47%
- growth at 100 µM (SK-MEL-5 [13]): -99%
- growth at 100 µM (UACC-257): -62%
- growth at 100 µM (OVCAR-8): -65%
- growth at 100 µM (UO-31): -37%
- growth at 100 µM (BT-549): -95%
- growth at 100 µM (T47D [14]): -71%
- growth at 10 µM (SF-295 [15]): -28%
- growth at 10 µM (SK-OV-3): -20%
- growth at 100 µM (SF-268): -8%

SMILES: C#C[C@@]1(O)[C@@H](CO)O[C@@H](n2cc(I)c3c(N)ncnc32)[C@@H]1O
- GI50 (SK-MEL-28 [1]; read-out: GI50): 1.56 to 2.46 µM
- TGI (SK-MEL-28 [1]; read-out: TGI): 9.27 to 14 µM
- CC50 (SK-MEL-28 [1]; [17]): > 100 µM
- GI50 (RXF 393; read-out: GI50): 418 to 463 nM
- CC50 (RXF 393; [16]): 7.84 to 100 µM
- TGI (RXF 393; read-out: TGI): 2.01 to 2.54 µM
- growth at 0.01 µM (SR): 94 to 96%
- growth at 0.1 µM (SK-MEL-5 [2]): 62 to 65%
- growth at 0.1 µM (MDA-MB-231): 60%
- growth at 1 µM (CCRF-CEM): 17 to 23%
- growth at 100 µM (SF-268): -7%
